Source: patent publication US12109266B2, “Modulating gabarap to modulate immunogenic cell death” (Dana-Farber Cancer Institute, Inc., priority 2020, dated 2024)
“Also recorded” adds a separate entry of the source.

Tests used:
[1] = tested on: type-I IFN response in AMO1 and NCI-H929 MM cells; test: Type-I IFN response in MM cells (RNA-seq, qRT-PCR, ELISA); assay type: cell-based, human; conditions: BTZ 5 nM
Description: Total RNA from multiple myeloma cells was prepared with TRIzol™ (ThermoFisher Scientific) and RNA Clean and Concentrator™-5 kit (Zymo Research) following the product instructions. RNA integrity and quantity was assessed by NanoDrop Spectrophotometer (ThermoFisher Scientific). For analysis of mRNA expression, oligo-dT-primed cDNA was obtained using the High Capacity cDNA Reverse Transcription Kit (ThermoFisher Scientific), and used as template to quantify: human and murine IFNA1 (Hs03044218_g1, Mm03030145_gH), human and murine IFNB1 (Hs01077958_s1, Mm00439552_s1), human and murine CXCL9 (Hs00171065_ml, Mm00434946_ml), and human and murine GAPDH (Hs02786624_g1, Mm99999915_g1). Analysis was determined by RT-PCR using TaqMan®Fast Universal PCR Master Mix on a 7500 Fast Real-Time PCR System (ThermoFisher Scientific). Comparative RT-PCR was performed in triplicate. Relative expression was calculated using the comparative […] (Ct) method.
AMO1^WT and STING^KO cells were either untreated or treated with BTZ for 24 h. Supernatant was collected, and secretion of CXCL9 chemokines was analyzed by MIG (CXCL9) Human Instant ELISA™ Kit (#BMS285INST, ThermoFisher Scientific).
AMO1 WT and STING^KO were cultured for 16 h in the presence of absence of BTZ (5 nM). RNA was extracted as previously described and submitted to NovaSeq RNAseq analysis followed by VIPER NGS Analysis pipeline (Cornwell et al. (2018) BMC Bioinformatics; 19(1):135). Lists of DEGs were applied to the GSEA software. RNAseq data have been submitted to Gene Expression Omnibus (accession number: GSE171837).

5TGM1 cells = test: Ex vivo IFN-gamma ELISPOT on splenocytes; assay type: in vivo, mouse; conditions: splenocytes of BTZ-treated, rechallenged mice
Description: 5×10^5 5TGM1 WT or calrKO were treated with BTZ (7.5 nM) in vitro for 16 h. C57BL/KaLwRijHsd mice (n=8 per group) were then either vaccinated in the left flank with dying 5TGM1 WT, 5TGM1calrKO, 5TGM1 gabarapKO or not vaccinated. After 1 week, 1×10^6 WT 5TGM1 cells were injected in the contralateral flank and tumor growth was monitored over time. In a parallel experiment under the same conditions, spleens from mice were harvested 10 days after rechallenge and ELISPOT assay was performed to assess T cell specific reactivity against MM cells (Translational Immunogenomics Laboratory, DFCI).
C57BL/KaLwRijHsd mice bearing 5TGM1 WT tumors were treated with BTZ as above. 2 weeks after observation of tumor regression, treated (n=5) as well as naïve mice (n=5), were rechallenged with viable 1×10^6 5TGM1 WT cells, and tumor growth was monitored over time. In a parallel experiment, spleens were harvested 2 weeks after tumor rechallenge from both groups to test T cell specific reactivity against multiple myeloma cell by ELISPOT assay (Translational Immunogenomics Laboratory, DFCI).

5TGM1 tumors = test: RNA-seq analysis from mouse tumors; assay type: in vivo; conditions: immunocompetent mice
Description: Tumors growing from both 5TGM1 WT or calrKO cells in C57BL/KaLwRijHsd mice treated with either PBS or BTZ (3/group) were harvested and used to extract RNA using the RNeasy® kit (Qiagen). After passing quality control, RNAseq was performed using Illumina NextSeq 500 Single-End 75 bp (SE75) and analyzed following the VIPER NGS analysis pipeline (Cornwell et al. (2018) BMC Bioinform. 19:135) comparing BTZ-treated mice vs PBS in each experimental setting. Listing of differentially expressed genes (DEGs) were applied to gene set enrichment analysis (GSEA) and Cytoscape (Bindea et al. (2009) Bioinform. 25:1091-1093; Bindea et al. (2013) Bioinform. 29:661-663) software to reveal biological pathways modulated by BTZ.
Tumors growing from both 5TGM1 WT or Calr^KO cells in C57BL/KaLwRijHsd mice treated with either PBS or BTZ (3/group) were harvested and used to extract RNA using the RNeasy kit (Qiagen). After passing quality control, RNAseq was performed using Illumina NextSeq 500 Single-End 75 bp (SE75) and analyzed following the VIPER NGS analysis pipeline (Cornwell et al. (2018) BMC Bioinformatics; 19(1):135), comparing BTZ-treated mice vs PBS in each experimental setting. […] Analysis of expression of human orthologs of these 90 genes in MM patients and correlation with patient clinical outcome was then analyzed as detailed below. […]

cGAS/STING pathway = test: Western blot of cGAS/STING pathway; assay type: cell-based, human
Description: Cell lysis was performed in RIPA buffer (Boston Bio Products) supplemented with Halt protease and phosphatase inhibitor cocktail (ThermoFisher Scientific). SDS-PAGE was performed on NuPage Bis-Tris gels (ThermoFisher Scientific) using MOPS or MES running buffer. Gels were dry transferred onto 0.45 μm nitrocellulose membranes using the iBlot® Dry Blotting System (ThermoFisher Scientific). The following Abs were purchased from Cell Signaling Technology: EIF2A (#5324), p-EIF2A (#3398), ATF4 (#11815), CHOP (2895), CALR (#12238), cGAS (#15102), TBK1 (#3504), pTBK1 (#5483), pIRF3 (#29047), STING (#13647). GAPDH (#2118) and B-ACTIN (#4970) were used as loading controls.

Structure (SMILES): CC(C)C[C@H](NC(=O)[C@H](Cc1ccccc1)NC(=O)c1cnccn1)B(O)O [BTZ, bortezomib]
- type-I IFN response gene sets (RNA-seq) ([1]; AMO1, 16 h): positive enrichment of gene sets included in the type-I IFN response hallmark signature; also recorded: MM cells engage in a type I IFN response after treatment with BTZ
- CXCL9 transcript and secreted CXCL9 (ELISA) ([1]; AMO1 STING^KO): neither CXCL9 transcript or its secreted form were detected
- type-I IFN response (RNA-seq; IFNA1, IFNB1 qRT-PCR) ([1]; AMO1 STING^KO): did not activate transcription of genes in the IFNs response or increase the levels of IFNA1 and IFNB1 transcripts; also recorded: STING dependent
- IFNA1, IFNB1 and CXCL9 transcripts (qRT-PCR) ([1]; AMO1 and NCI-H929, 16 h): increased IFNA1, IFNB1 and CXCL9 transcripts
- T cell reactivity against MM cells (IFN-gamma ELISPOT) (5TGM1 cells): robust immune response against multiple myeloma cells; also recorded: generates a robust immune response against MM cells
- transcriptional changes in tumors (RNA-seq) (5TGM1 tumors; 5TGM1 Calr^KO tumors): decreased this effect
- transcriptional changes in tumors (RNA-seq) (5TGM1 tumors; 5TGM1 WT tumors, two BTZ treatments 0.5 mg/kg): switched on a transcriptional program that is linked to the activation of an immune response; also recorded: consistent with activation of an immune response
- cGAS/STING pathway activation (cGAS, pTBK1, pIRF3) (cGAS/STING pathway; AMO1 (BTZ 5-10 nM, 16 h) and NCI-H929 WT): induces accumulation of the cytosolic DNA sensor cGAS; also recorded: induces IFN-I signaling and promotes T cell activation via cGAS/STING pathway
- cGAS level (cGAS/STING pathway; AMO1 STING^KO, BTZ 5 nM): significantly accumulated cGAS
- p-TBK1 downstream signaling (cGAS/STING pathway; AMO1 STING^KO, BTZ 5 nM): blocked activation of downstream signaling including p-TBK1
